Laboratory results from PubChem BioAssay (NCI).
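Protocol summary: plate cells (96-well), add compound at 5 concentrations, incubate 48 h, interpolate endpoints linearly. Abbreviation: GI50, concentration required for 50% inhibition of growth. TGI marks complete inhibition of growth.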

What follows are compounds tested on HOP-62 NSCLC (assay: NCI anticancer screen, dose series, 48 h).

Row | Compound | GI50 [µM] | TGI [µM]
1 | CCn1c(SCc2ccc(C)cc2)nnc1-c1nn(-c2ccc(Cl)cc2Cl)c(-c2ccc(Cl)cc2)c1C | 2.73 | 11.9

What follows are compounds tested on HT29 colon (assay: NCI anticancer screen, dose series, 48 h).

Row | Compound | GI50 [µM] | TGI [µM]
2 | Nc1ccc(-c2nc3ccc(Cc4ccc5nc(-c6ccc(N)cc6)[nH]c5c4)cc3[nH]2)cc1 | 1.89 | 4.1
3 | O=S(=O)(Nc1cc(Sc2cccc3cccnc23)c(O)c2ccccc12)c1ccccc1 | 2.42 | 14.4
4 | CN(C)C(=O)[C@H](O)[C@H](Cc1ccccc1)NC(=O)c1cc2cc(Cl)ccc2[nH]1 | 20.3 | 48.8
5 | CC(C)(C[C@H]1CN(S(=O)(=O)c2cccc(C(F)(F)F)c2)c2cc(-c3cc(F)cc(OC(F)F)c3)ccc2O1)C(=O)O | 4.01 | 15.6
6 | O=C(O)C1C(Br)(c2ccccc2)C1(Br)c1ccccc1 (stereo unspecified) |  | 59
7 | CCSc1nc(SCC)c2cn[nH]c2n1 | 62.9 | > 100
8 | ClCC[N+]12CC[N+](CCCl)(CC1)C2 |  | > 100
9 | COc1ccc(CCN2COc3c([C@@H](C)CCC=C(C)C)ccc(C)c3C2)cc1OC | 2.2 | 5.73
10 | COc1cc(C(=O)c2cc(C)c3[nH]c4ccc(C)cc4c3c2C)cc(OC)c1OC | < 0.01 | 1.62
11 | COc1cc(/C=C/c2cc(/C=C/c3ccc(O)c(OC)c3)n(C(=O)Nc3ccc(C)cc3C)n2)ccc1O | 0.903 | 3.59
12 | C=C1C(=O)OC2/C=C(\COC(C)=O)CCC(OC(C)=O)C3=CC(OC3=O)C12 (stereo unspecified) |  | 15.8
13 | Cc1ccc2[nH]c(O)c(N=Nc3ccc(S(N)(=O)=O)cc3)c2c1 | 12.1 | > 25
14 | C/C(N=NC(=S)N(C)C)=C1\C=CC=CN1O |  | > 100
15 | Cn1c(=O)c(Cc2ccccc2F)cc2cnc(NC3CCOCC3)nc21 | > 25 | > 25
16 | CC1(C)[C@@H](OC(N)=O)[C@H]2O[C@H]2[C@]2(C=O)[C@H]3CC[C@]4(C)[C@@H](c5ccc(=O)oc5)[C@@H](Cl)C[C@]4(O)C3=CC[C@@H]12 | 0.00581 | 0.0125
17 | CCCCON(OC(=O)c1ccc2ccc3cccc4ccc1c2c34)C(C)=O | 25 | 74.9
18 | Cc1[nH]c2ccccc2c(=O)c1CC=C(Cl)Cl | > 100 | > 100
19 | Clc1ccc(C=Nc2ccc3c(c2)Cc2ccccc2-3)c(Cl)c1 |  | > 100
20 | COc1ccc(/C=C/c2cc(OC)cc(=O)o2)cc1 |  | > 100
21 | O=C(/C=C\c1ccc(NCc2ccc(C(=O)O)cc2)cc1)CCl | 18.9 | 37.8
22 | COc1cccc2c(=O)c3c(sc12)c(N1CCNCC1)nc1ccccc13 | 1.46 | 3.11
23 | COc1ccc(/C=C/C(=O)C(CC2CCC2)C(=O)/C=C/c2ccc(OC)c(OC)c2)cc1OC | 1.78 | 4.34
24 | CCn1c(SCc2ccc(C)cc2)nnc1-c1nn(-c2ccc(Cl)cc2Cl)c(-c2ccc(Cl)cc2)c1C | 1.11 | 10.6
25 | CN(CCC#N)c1ccc(/C=C(\C#N)c2ccc(Br)cc2)cc1 | 3.16 | > 100

These compounds were tested on OVCAR-3 ovarian (assay: NCI anticancer screen, dose series, 48 h).

Row | Compound | GI50 [µM] | TGI [µM]
26 | Nc1ccc(-c2nc3ccc(Cc4ccc5nc(-c6ccc(N)cc6)[nH]c5c4)cc3[nH]2)cc1 | 1.76 | 3.31
27 | CC(CO)(CO)NCCCCn1ccc2c1C(=O)c1c(c(O)c3ccccc3c1O)C2=O | 5.78 | 29.1
28 | O=S(=O)(Nc1cc(Sc2cccc3cccnc23)c(O)c2ccccc12)c1ccccc1 | 0.817 | 3.9
29 | CN(C)C(=O)[C@H](O)[C@H](Cc1ccccc1)NC(=O)c1cc2cc(Cl)ccc2[nH]1 | 18.5 | 43.5
30 | CC(C)(C[C@H]1CN(S(=O)(=O)c2cccc(C(F)(F)F)c2)c2cc(-c3cc(F)cc(OC(F)F)c3)ccc2O1)C(=O)O | 3.76 | 14.1
31 | O=C(O)C1C(Br)(c2ccccc2)C1(Br)c1ccccc1 (stereo unspecified) |  | > 100
32 | CCSc1nc(SCC)c2cn[nH]c2n1 | 38.8 | > 100
33 | ClCC[N+]12CC[N+](CCCl)(CC1)C2 |  | > 100
34 | COc1ccc(CCN2COc3c([C@@H](C)CCC=C(C)C)ccc(C)c3C2)cc1OC | 3.55 | 14.1
35 | COc1cc(C(=O)c2cc(C)c3[nH]c4ccc(C)cc4c3c2C)cc(OC)c1OC | < 0.01 | 
36 | COc1cc(/C=C/c2cc(/C=C/c3ccc(O)c(OC)c3)n(C(=O)Nc3ccc(C)cc3C)n2)ccc1O | 0.327 | 1.03
37 | C=C1C(=O)OC2/C=C(\COC(C)=O)CCC(OC(C)=O)C3=CC(OC3=O)C12 (stereo unspecified) |  | 12.4
38 | Cc1ccc2[nH]c(O)c(N=Nc3ccc(S(N)(=O)=O)cc3)c2c1 | 6.73 | > 18.4
39 | C/C(N=NC(=S)N(C)C)=C1\C=CC=CN1O |  | > 100
40 | Cn1c(=O)c(Cc2ccccc2F)cc2cnc(NC3CCOCC3)nc21 | > 25 | > 25
41 | CC1(C)[C@@H](OC(N)=O)[C@H]2O[C@H]2[C@]2(C=O)[C@H]3CC[C@]4(C)[C@@H](c5ccc(=O)oc5)[C@@H](Cl)C[C@]4(O)C3=CC[C@@H]12 | 0.00487 | 0.00981
42 | CCCCON(OC(=O)c1ccc2ccc3cccc4ccc1c2c34)C(C)=O | 31.8 | 82.7
43 | Cc1[nH]c2ccccc2c(=O)c1CC=C(Cl)Cl | 43.5 | > 100
44 | C1CCC([PH+](C2CCCCC2)C2CCCCC2[PH+](C2CCCCC2)C2CCCCC2)CC1.O=C(C1[CH-]CCCC1)C1CCCC[N-]1.[Au] (stereo unspecified) | 0.272 | 1.19
45 | Clc1ccc(C=Nc2ccc3c(c2)Cc2ccccc2-3)c(Cl)c1 |  | > 100
46 | COc1ccc(/C=C/c2cc(OC)cc(=O)o2)cc1 |  | > 100
47 | O=C(/C=C\c1ccc(NCc2ccc(C(=O)O)cc2)cc1)CCl | 11.7 | 24.6
48 | O=C1CSC(c2ccc(Cl)cc2Cl)N1c1ccc(F)cc1 (stereo unspecified) | 17.2 | 32.1
49 | CC(C)C[C@H](NC(=O)/C=C/Cn1ccc2ccccc2c1=O)B(O)O | 2.55 | 7.88
50 | COc1cccc2c(=O)c3c(sc12)c(N1CCNCC1)nc1ccccc13 | 1.67 | 3.12
51 | COc1c(CCl)cc(-c2cc(=O)c3ccccc3s2)cc1CCl |  | > 100
52 | COc1ccc(/C=C/C(=O)C(CC2CCC2)C(=O)/C=C/c2ccc(OC)c(OC)c2)cc1OC | 1.04 | 3.04
53 | CCn1c(SCc2ccc(C)cc2)nnc1-c1nn(-c2ccc(Cl)cc2Cl)c(-c2ccc(Cl)cc2)c1C | 1.98 | 11.6

What follows are compounds tested on NCI-H460 lung (assay: NCI anticancer screen, dose series, 48 h).

Row | Compound | GI50 [µM] | TGI [µM]
54 | Nc1ccc(-c2nc3ccc(Cc4ccc5nc(-c6ccc(N)cc6)[nH]c5c4)cc3[nH]2)cc1 | 14.4 | 37.1
55 | CC(CO)(CO)NCCCCn1ccc2c1C(=O)c1c(c(O)c3ccccc3c1O)C2=O | 13.7 | 42.9
56 | O=S(=O)(Nc1cc(Sc2cccc3cccnc23)c(O)c2ccccc12)c1ccccc1 | 0.499 | 13.7
57 | CN(C)C(=O)[C@H](O)[C@H](Cc1ccccc1)NC(=O)c1cc2cc(Cl)ccc2[nH]1 | 22 | 56.1
58 | CC(C)(C[C@H]1CN(S(=O)(=O)c2cccc(C(F)(F)F)c2)c2cc(-c3cc(F)cc(OC(F)F)c3)ccc2O1)C(=O)O | 4.1 | 16.3
59 | O=C(O)C1C(Br)(c2ccccc2)C1(Br)c1ccccc1 (stereo unspecified) |  | > 100
60 | CCSc1nc(SCC)c2cn[nH]c2n1 | 31.9 | > 100
61 | ClCC[N+]12CC[N+](CCCl)(CC1)C2 |  | > 100
62 | COc1ccc(CCN2COc3c([C@@H](C)CCC=C(C)C)ccc(C)c3C2)cc1OC | 2.06 | 4.3
63 | COc1cc(C(=O)c2cc(C)c3[nH]c4ccc(C)cc4c3c2C)cc(OC)c1OC | < 0.01 | > 100
64 | C=C1C(=O)OC2/C=C(\COC(C)=O)CCC(OC(C)=O)C3=CC(OC3=O)C12 (stereo unspecified) |  | 37.8
65 | Cc1ccc2[nH]c(O)c(N=Nc3ccc(S(N)(=O)=O)cc3)c2c1 | 6.86 | > 25
66 | C/C(N=NC(=S)N(C)C)=C1\C=CC=CN1O |  | > 100
67 | Cn1c(=O)c(Cc2ccccc2F)cc2cnc(NC3CCOCC3)nc21 | > 25 | > 25
